Experimental data taken from article PMC8157715 (2020).

Key:
[1] = system: Wide-type adenosine Apt (wild-type aptamer) (DNA, aptamer) ACCTGGGGGAGTATTGCGGAGGAAGGT; experiment: SYBR Green I fluorescence; conditions: 100 mM NaCl, 5 mM MgCl2, 20 mM HEPES pH 7.6, 2 mM
[2] = system: A10-excised Apt (DNA, aptamer) GTATTGCGGAGGAAGGTTTTTAACCTTCGGGG; experiment: SYBR Green I fluorescence; conditions: 100 mM NaCl, 5 mM MgCl2; 20 mM HEPES pH 7.6; SYBR Green I displaced; 2 mM
[3] = system: Duplex-2 (DNA, hairpin) GTATTGCGCCCCGAAGGTTTTTAACCTTCGGGG; experiment: SYBR Green I fluorescence; conditions: 100 mM NaCl, 5 mM MgCl2; 20 mM HEPES pH 7.6; 12.5 nM SYBR Green I; 2 mM
[4] = system: Res-A10-Right cut (DNA, aptamer) GTATTGCGGAGGAAGGTTTTTAACCTTCGGGGA; experiment: SYBR Green I fluorescence; conditions: 100 mM NaCl, 5 mM MgCl2; 20 mM HEPES pH 7.6; SYBR Green I displaced; 2 mM
[5] = system: Res-A10-Right cut (DNA, aptamer) GTATTGCGGAGGAAGGTTTTTAACCTTCGGGGA; experiment: ITC; conditions: 100 mM NaCl, 5 mM MgCl2, 20 mM HEPES pH 7.6, 10 °C
[6] = system: Res-A10-Left cut (DNA, aptamer) AGTATTGCGGAGGAAGGTTTTTAACCTTCGGGG; experiment: SYBR Green I fluorescence titration; conditions: 100 mM NaCl, 5 mM MgCl2; 20 mM HEPES pH 7.6; SYBR Green I (50 nM) displaced; apparent
[7] = system: A10-excised Apt (DNA, aptamer) GTATTGCGGAGGAAGGTTTTTAACCTTCGGGG; experiment: ITC; conditions: 100 mM NaCl, 5 mM MgCl2, 20 mM HEPES pH 7.6, 10 °C
[8] = system: Res-A10-Right cut (DNA, aptamer) GTATTGCGGAGGAAGGTTTTTAACCTTCGGGGA; experiment: SYBR Green I fluorescence titration; conditions: 100 mM NaCl, 5 mM MgCl2, 20 mM HEPES pH 7.6
[9] = system: A10-excised Apt (DNA, aptamer) GTATTGCGGAGGAAGGTTTTTAACCTTCGGGG; experiment: SYBR Green I fluorescence titration; conditions: 100 mM NaCl, 5 mM MgCl2, 20 mM HEPES pH 7.6
[10] = system: One-site Apt (DNA, aptamer) ACCTTCGGGGAGTATTGCGGAGGAAGGT; experiment: ITC; conditions: 100 mM NaCl, 5 mM MgCl2; 20 mM HEPES pH 7.6, 10 °C, one-site model
[11] = system: Duplex-1 (DNA, hairpin) GGGGGTATTGCCCCCGCAAGGTTTTTAACCTTG; experiment: SYBR Green I fluorescence; conditions: 100 mM NaCl, 5 mM MgCl2; 20 mM HEPES pH 7.6; 12.5 nM SYBR Green I; 2 mM
[12] = system: Res-A10-Left cut (DNA, aptamer) AGTATTGCGGAGGAAGGTTTTTAACCTTCGGGG; experiment: SYBR Green I fluorescence; conditions: 100 mM NaCl, 5 mM MgCl2; 20 mM HEPES pH 7.6; SYBR Green I displaced; drop two thirds of adenosine's
[13] = SYBR Green I (50 nM) displaced, apparent
[14] = 1 mM AMP in syringe, extremely weak, undetectable heat

Structure (SMILES) | binding ([1]; SYBR Green I displaced) | binding [2] | binding [4] | binding ([1]; 50 nM SYBR Green I displaced) | also measured
Cn1c(=O)c2[nH]cnc2n(C)c1=O | no | no | – | – | –
Nc1ccn([C@@H]2O[C@H](CO)[C@@H](O)[C@H]2O)c(=O)n1 | no | no | no | – | binding [3]: no
Nc1nc2c(ncn2[C@@H]2O[C@H](CO)[C@@H](O)[C@H]2O)c(=O)[nH]1 | no | no | – | – | –
Nc1ncnc2c1ncn2[C@@H]1O[C@H](CO)[C@@H](O)[C@H]1O | – | – | – | yes | binding [3]: no; Kd ([5]; one-site model): 21.0 ± 3.8 µM; Kd [6]: 570 µM; Kd ([7]; one-site model): 14.8 ± 2.1 µM; half saturation [8, 13]: 0.94 mM; Kd [9, 13]: 370 µM; Kd [10]: 2.8 ± 0.1 µM; binding [11]: no
Nc1ncnc2c1ncn2[C@@H]1O[C@H](COP(=O)(O)O)[C@@H](O)[C@H]1O | – | – | – | yes | binding [5, 14]: no; binding [7, 14]: no; binding ([8]; SYBR Green I displaced, no binding in titration): no; binding ([9]; SYBR Green I displaced, up to 2 mM): no; Kd [10]: 13.5 ± 1.6 µM; binding [12]: yes
Nc1ncnc2c1ncn2[C@@H]1O[C@H](COP(=O)(O)OP(=O)(O)OP(=O)(O)O)[C@@H](O)[C@H]1O | – | no | no | yes | –
O=c1ccn([C@@H]2O[C@H](CO)[C@@H](O)[C@H]2O)c(=O)[nH]1 | no | no | no | – | –
